The values that follow are results of earlier work, collected in US8518435B2 (priority 2011, dated 2013).

The term IC50 denotes the point on the concentration scale where inhibition reaches its midpoint.

The test system of one data set is influenza virus. The note with it: mice infected with lethal doses of influenza virus, vs saline controls.
In data set [1] the test system is bacteria, viruses, parasites, and yeast/mold/fungus. The note with it: in vitro (in a test tube).
The subject of another data set is rhinovirus IB. The conditions noted are these: in vitro; J. Nat. Prod. (1994).

On to `CC1(C)[C@@H](O[C@H]2O[C@H](C(=O)O)[C@@H](O)[C@H](O)[C@H]2O[C@@H]2O[C@H](C(=O)O)[C@@H](O)[C@H](O)[C@H]2O)CC[C@]2(C)[C@H]3C(=O)C=C4[C@@H]5C[C@@](C)(C(=O)O)CC[C@]5(C)CC[C@@]4(C)[C@]3(C)CC[C@@H]12` [glycyrrhizin], for which, in the data set on influenza virus, the lung damage entry is “less lung damage” and the protection from death entry is “protected from death due to the virus”.
For `COC(=O)C1=CO[C@@H](C)[C@@H](C=O)[C@@H]1CC(=O)[O-].COC(=O)C1=CO[C@@H](C)[C@@H](C=O)[C@@H]1CC(=O)[O-].[Ca+2]` [calcium elenolate], in data set [1], the “effectiveness in eliminating organisms” value was “effective in eliminating a very broad range of organisms”.
Turning to beta-sesquiphellandrone, the IC50 in the data set on rhinovirus IB was 440 nM.
